# Measurements reported in US7985745B2, “Method for pain treatment” (Abbott Laboratories, priority 2006, dated 2011).
# Key:
# inflammatory pain = experiment: Carrageenan-induced thermal hyperalgesia, hotbox assay; format: in vivo; settings: 90 minutes after carrageenan, tested 30 minutes after dosing
# Procedure: To assess the effectiveness of representative compounds of the invention against acute model inflammatory pain, animals were tested in an acute model of carrageenan-induced thermal hyperalgesia (see for example, Honore, et al. Behavioural Brain Research 167 (2006) 355-364; Porreca, et al. Journal of Pharmacology and Experimental Therapeutics (2006) vol. 318 pp. 195-205). Carrageenan was injected into the test paw of the animal, and after 90 minutes, the test drug was administered by intraperitoneal dosing. The effect on thermal hyperalgesia was assessed in a hotbox assay which was done 30 minutes after the intraperitoneal dosing of the test drug, and the MPE (maximal percent effect) reported by comparison to the control paw (not injected with carrageenan), according to 100 times the withdrawal latency of the carrageenan injected paw (in seconds) divided by the withdrawal latency of the control (not injected with carrageenan) paw.
# tactile allodynia = experiment: Complete Freund's adjuvant model, tactile allodynia by von Frey filaments; format: in vivo, rat; settings: 48 hours after CFA, mechanical stimulus
# Procedure: In a separate method of assessing the effectiveness of representative compounds of the invention against hyperalgesia, animals were tested in the acute model of adjuvant-induced hyperalgesia using Complete Freund's Adjuvant (CFA) as described above, but in this case, tactile allodynia to a mechanical stimulus was measured using calibrated von Frey filaments (Stoelting, Wood Dale, Ill.). Animals were prepared as described above: a solution of Complete Freund's adjuvant (150 microliters of a 50% aqueous solution, Sigma Chemical Company, St. Louis, Mo.) was injected into the plantar surface of test paw of the animal (rat). Rats so injected develop a hyperalgesia to mechanical (touch) stimulation which is assessed 48 hours after injection of the Complete Freund's adjuvant. Withdrawal threshold was determined by increasing and decreasing stimulus intensity, and estimated using the Dixon's up-down method (Dixon, Annual Rev. Pharmacol. Toxicol. (1980) vol. 20, pp. 441-462; Chaplan et al. “Quantitative assessment of tactile allodynia in the rat paw” J. Neuroscience Methods (1994) vol. 53 pp. 55-63). Rats were placed into inverted individual plastic containers (20×12.5×20 cm) on top of a suspended wire mesh with a 1 cm^2 grid to provide access to the ventral side of the hind paws, and acclimated to the test chambers for 20 min. The von Frey filaments were presented perpendicularly to the plantar surface of the selected hind paw, and then held in this position for approximately 8 seconds with enough force to cause a slight bend in the filament. Positive responses included an abrupt withdrawal of the hind paw from the stimulus, or flinching behavior immediately following removal of the stimulus. Withdrawal threshold was determined using an up-down procedure (Dixon, Annual Rev. Pharmacol. Toxicol. (1980) vol. 20, pp. 441-462; Chaplan et al. “Quantitative assessment of tactile allodynia in the rat paw” J. Neuroscience Methods (1994) vol. 53 pp. 55-63). The strength of the maximum filament used for von Frey testing was 15.0 g.
# neuropathic pain = experiment: Chung model: L5/L6 spinal nerve ligation, mechanical allodynia by von Frey filaments; format: in vivo, rat; settings: 30 minutes before testing
# Procedure: Animals were prepared for testing, by use of a surgical procedure that induces neuropathic pain in one paw. Male Sprague Dawley rats were purchased from Charles River (Portage, Mich.). Prior to surgery, animals were housed in groups and maintained in a temperature-regulated environment. Following nerve ligation surgery, animals were housed in groups, and had access to food and water ad libitum.
# The L5 and L6 spinal nerves of anesthetized rats were tightly ligated in a manner described previously (see Kim and Chung, Pain (1992) vol. 50 pp. 355-363). An incision was made on the dorsal portion of the hip and the muscle was blunt-dissected to reveal the spinal processes. The L6 transverse process was removed, and the left side L5 and L6 spinal nerves were tightly ligated with 5.0 braided silk suture. The wound was cleaned, the membrane sewn with 4.0 dissolvable Vicryl suture and the skin closed with wound clips. The paw affected by the surgical procedure (the left paw) develops an allodynic response, a hypersensitivity to mechanical and other stimuli; neuropathic pain is assessed as an increased sensitivity in the surgically affected (left) allodynic paw compared to the control paw on the right side, and measured by comparing the response of the (left side) allodynic paw to the response of the unaffected right side control paw.
# For the assessment of neuropathic pain, mechanical allodynia in the affected paw of animals that had undergone spinal nerve ligation was evaluated using testing with von Frey filaments. As described previously by S. R. Chaplan, et al (“Quantitative assessment of tactile allodynia in the rat paw” J. Neurosci. Meth. (1994) vol. 53 pp. 55-63), two weeks following surgery rats were acclimated to a testing box constructed of plexiglass with a wire mesh floor which allowed access to the plantar surface of the animal's hindpaws. Using an Up-Down method (Dixon, Annual Rev. Pharmacol. Toxicol. (1980) vol. 20, pp. 441-462; Chaplan et al. “Quantitative assessment of tactile allodynia in the rat paw” J. Neuroscience Methods (1994) vol. 53 pp. 55-63), von Frey filaments of increasing stiffness were applied to the plantar surface of the hindpaws and the withdrawal response of the animals was observed; for the surgically affected paw with neuropathic pain (the left side paw) the baseline level of allodynia has a withdrawal threshold of ≦4 g of pressure. By comparison, for the control paw without allodynia (in this case the right side paw), the typical withdrawal pressure is around 15 g. Representative compounds of the invention, administered intraperitoneally 30 minutes before testing, are able to reduce the symptoms of neuropathic pain and induce a dose-dependent increase in the withdrawal threshold for allodynic (left side) limb, up to a maximum effect of 15 g. The efficacy of the compound in reducing neuropathic pain at different doses is determined by comparing response in the surgery-affected paw versus the response in the control paw. This is expressed as the MPE (maximum percent effect), or 100 times the withdrawal threshold of the allodynic (left side) divided by the withdrawal threshold of the control (right side).
# [1] = test system: mechanical allodynia after skin incision; experiment: Surgical skin incision model, mechanical allodynia by von Frey hair; format: in vivo, rat
# Procedure: This is a surgical skin incision model (Joshi, et al. Pain 123 (2006) 75-82). Animals (rats) were prepared for testing by subjecting them to a surgical procedure carried out under sterile conditions, where the plantaris muscle was elevated and incised longitudinally with the origin and insertion of the muscle remaining intact. The skin was then closed with two mattress sutures (e.g. 5-0 nylon sutures). After surgery, animals were allowed to recover on a warming plate and housed individually in cages with soft bedding. […] Animals were tested for mechanical allodynia using von Frey hair mechanical stimulation 2, 24, and 48 h after surgery as described for the Chung model.
Structure (SMILES),MPE (inflammatory pain; 100 micromole/kg i.p.),MPE (tactile allodynia; 30 micromole/kg i.p.),MPE (tactile allodynia; 100 micromole/kg i.p.),MPE (neuropathic pain; 100 micromole/kg i.p.),MPE (neuropathic pain; 300 micromole/kg i.p.),MPE ([1]; 30 micromole/kg i.p.),MPE ([1]; 100 micromole/kg i.p.),MPE (inflammatory pain; 30 micromole/kg i.p.),MPE (inflammatory pain; 300 micromole/kg i.p.),MPE (tactile allodynia; 300 micromole/kg i.p.),MPE (neuropathic pain; 250 micromole/kg i.p.),MPE (neuropathic pain; 500 micromole/kg i.p.),MPE ([1]; 250 micromole/kg i.p.),MPE ([1]; 500 micromole/kg i.p.),MPE (neuropathic pain; 30 micromole/kg i.p.)
"CNC1CN(c2nc(N)nc3c2CCCc2ccccc2-3)C1 [Example 6, 4-(3-Methylamino-azetidin-1-yl)-6,7-dihydro-5H-benzo[6,7]cyclohepta[1,2-d]pyrimidin-2-ylamine]",41%,35%,49%,36%,78%,21%,69%,–,–,–,–,–,–,–,–
"CN1CCN(C(=O)c2cc3cc(Cl)ccc3[nH]2)CC1 [Example 3, reference compound]",49%,55%,–,16%,–,–,–,23%,96%,71%,50%,94%,46%,79%,–
"CN1CCN(c2cc(-c3ccc(C#N)cc3)nc(N)n2)CC1.O=C(O)/C=C\C(=O)O [Example 1, 4-(2-Amino-6-(4-methylpiperazin-1-yl)pyrimidin-4-yl)benzonitrile, maleate]",100%,42%,63%,44%,77%,31%,65%,36%,–,–,–,97%,–,–,14%
